Laboratory results: patent US8846363B2, “Compositions of and methods of using sulfatases from Flavobacterium heparinum” (priority 2007, dated 2014)
Entries after “also recorded” stand apart in the source; their conditions may differ.

What was measured:
[1] = molecular target: T1, Flavobacterium heparinum 6-O-sulfatase (ORF B), recombinant, NH2-terminal truncation lacking signal sequence, SEQ ID NO: 2 (Pedobacter heparinus, UniProt C6Y1N4); assay: Inhibition of 6-O-sulfatase activity (sulfate, phosphate, chelators); type: biochemical
T1 construct: E. coli BL21(DE3), N-terminal 6xHis removed by thrombin
T1 sequence (C6Y1N4 entry or part of it): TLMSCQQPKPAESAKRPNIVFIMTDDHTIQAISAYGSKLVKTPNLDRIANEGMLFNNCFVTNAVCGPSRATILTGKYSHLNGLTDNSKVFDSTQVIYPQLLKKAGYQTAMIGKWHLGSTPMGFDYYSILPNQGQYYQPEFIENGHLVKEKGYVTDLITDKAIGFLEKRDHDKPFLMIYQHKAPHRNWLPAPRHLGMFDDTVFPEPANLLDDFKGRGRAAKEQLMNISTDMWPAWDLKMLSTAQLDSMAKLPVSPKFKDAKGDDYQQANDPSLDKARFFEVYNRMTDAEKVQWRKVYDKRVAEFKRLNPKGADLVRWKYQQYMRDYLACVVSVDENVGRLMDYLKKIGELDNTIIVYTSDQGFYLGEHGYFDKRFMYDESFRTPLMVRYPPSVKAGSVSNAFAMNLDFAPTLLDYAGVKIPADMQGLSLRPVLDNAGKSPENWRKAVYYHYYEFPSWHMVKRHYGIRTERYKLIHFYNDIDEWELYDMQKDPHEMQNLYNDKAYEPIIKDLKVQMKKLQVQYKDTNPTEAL
Procedure: Results are normalized to 0.0 M NaCl added (which is shown as 100%). 6-O-sulfatase (●); N-sulfamidase (◯). […] Results for 6-O-sulfatase are represented by a solid line; results for N-sulfamidase are represented by a dashed line. […] Log scale for inhibitor concentration, [I]. […] Relative activities (% desulfation) were measured over a pH range of 4-8 using three buffers: sodium acetate (●), MES (◯) and MOPS (▴).
Open bars (no divalent metals added); black bars (1 mM EDTA added); light gray bars (1 mM divalent metal); stippled gray bars (5 mM divalent metal). […] Enzyme kinetics were measured for the 6-O-sulfatase (FIG. 8C) and N-sulfamidase (FIG. 8D) as described in Materials and Methods at varying concentrations of Ca^+2 or in the presence of 1 mM EDTA. Substrate saturation plots were fitted to pseudo first-order Michaelis-Menten kinetics by non-linear regression analyses. 0.5 mM Ca^+2 (●), 1 mM Ca^+2 (◯), 5 mM Ca^+2 (▪), 1 mM EDTA (Δ).
Indirect measurement of enzyme activity was also made using a fluorimetrically-based plate assay in which the prerequisite desulfation of the appropriate glucopyranoside 1→4 methlybelliferone substrate by either the 6-O-sulfatase or N-sulfamidase was coupled to the glucosidase-mediated hydrolysis of the stereo-specific 1→4 glycosidic linkage between the pyranose ring and the adjoining fluorophore. Release of the free fluorophore (4-MU) was monitored spectroscopically as described above for the arylsulfatase assay using 4-MU sulfate. The two sulfatase assays differed in the choice of substrate in accordance to their specificity as well as the glucosidase added during the second, rate-limiting step. […] Reaction conditions were optimized to satisfy three related criteria: 1) linear readout of fluorescent signal which is directly proportional to sulfatase activity; 2) quantitative release of 4-MU by glucosidase activity under every biochemical condition examined and; 3) negligible fluorescent quenching of the free chromophore. […]

[2] = molecular target: T2, Flavobacterium heparinum N-sulfamidase (ORF C), recombinant, NH2-terminal truncation lacking signal sequence, SEQ ID NO: 4 (Pedobacter heparinus, UniProt C6Y1N3); assay: Inhibition of N-sulfamidase activity (sulfate, phosphate, chelators); type: biochemical
T2 construct: E. coli BL21(DE3), N-terminal 6xHis removed by thrombin
T2 sequence (C6Y1N3 entry or part of it): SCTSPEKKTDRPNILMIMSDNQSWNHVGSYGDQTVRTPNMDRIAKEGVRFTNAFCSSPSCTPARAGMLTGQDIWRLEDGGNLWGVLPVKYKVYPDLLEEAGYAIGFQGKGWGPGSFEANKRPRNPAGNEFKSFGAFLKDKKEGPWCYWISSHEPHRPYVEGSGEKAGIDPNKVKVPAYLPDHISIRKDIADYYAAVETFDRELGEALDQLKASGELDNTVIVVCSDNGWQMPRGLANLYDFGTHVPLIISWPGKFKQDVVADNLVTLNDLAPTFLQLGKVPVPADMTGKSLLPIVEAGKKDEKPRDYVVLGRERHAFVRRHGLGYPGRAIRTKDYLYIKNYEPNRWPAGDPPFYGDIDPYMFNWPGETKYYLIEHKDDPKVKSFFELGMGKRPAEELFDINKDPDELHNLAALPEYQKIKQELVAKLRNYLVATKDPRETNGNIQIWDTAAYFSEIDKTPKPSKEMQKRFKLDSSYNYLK
Procedure: Results are normalized to 0.0 M NaCl added (which is shown as 100%). […] Relative activities (% desulfation) were measured over a pH range of 4-8 using three buffers: sodium acetate (●), MES (◯) and MOPS (▴).
Enzyme kinetics were measured for the 6-O-sulfatase (FIG. 8C) and N-sulfamidase (FIG. 8D) as described in Materials and Methods at varying concentrations of Ca^+2 or in the presence of 1 mM EDTA. Substrate saturation plots were fitted to pseudo first-order Michaelis-Menten kinetics by non-linear regression analyses.
Indirect measurement of enzyme activity was also made using a fluorimetrically-based plate assay in which the prerequisite desulfation of the appropriate glucopyranoside 1→4 methlybelliferone substrate by either the 6-O-sulfatase or N-sulfamidase was coupled to the glucosidase-mediated hydrolysis of the stereo-specific 1→4 glycosidic linkage between the pyranose ring and the adjoining fluorophore. Release of the free fluorophore (4-MU) was monitored spectroscopically as described above for the arylsulfatase assay using 4-MU sulfate. The two sulfatase assays differed in the choice of substrate in accordance to their specificity as well as the glucosidase added during the second, rate-limiting step. For the 6-O-sulfatase, the hydrolysis of the substrate 4-MU-β-D-GlcNAc,6S at the 6-OH position was coupled to β-glucosidase purified from sweet almonds (MP Biomedicals, Solon, Ohio, Catalog No. 195197). Likewise, N-sulfamidase hydrolysis of 4-MU-α-D-GlcNS at the 2-amino position was coupled to α-glucosidase (MP Biomedicals, Catalog No. 153487). […] The presumption of the first (sulfatase) activity being the rate-limiting step was established experimentally. Reaction conditions were optimized to satisfy three related criteria: 1) linear readout of fluorescent signal which is directly proportional to sulfatase activity; 2) quantitative release of 4-MU by glucosidase activity under every biochemical condition examined and; 3) negligible fluorescent quenching of the free chromophore.
Coupled N-sulfamidase assay was generally described for the 6-O-sulfatase, but with the following modifications: 4-MU-GlcNS as substrate, 50 mM sodium acetate at pH 6.0 (instead of 5.5) and 1 μM enzyme. For the second enzyme step, 5 units of α-glucosidase were added. Enzyme incubation was carried out for 22 hours at 37° C. […] All other reaction conditions were as described for the coupled 6-O-sulfatase/β-glucosidase assay.
Having identified chromogenic substrates for each recombinant sulfatase, these substrates were also used to further develop a fluorescence-based plate assay as the means to define the optimal in vitro reaction conditions for each sulfatase.

## O=C(O)CN(CCN(CC(=O)O)CC(=O)O)CC(=O)O [EDTA, ethylenediaminetetracetic acid]
[1]; 1 mM EDTA
  6-O-sulfatase activity in the presence of EDTA: somewhat active
[2]; 1 mM EDTA
  N-sulfamidase activity in the presence of EDTA: lack of activity

## O=C(O)CN(CCOCCOCCN(CC(=O)O)CC(=O)O)CC(=O)O [EGTA]
[1]; EGTA, same conditions as N-sulfamidase (5 mM Ca^2+)
  effect on 6-O-sulfatase specific activity: no appreciable effect

## O=S(=O)(O)O [sulfate]
[1]; normalized to 0 sulfate or phosphate added, read-out: concentration for 50% inhibition of 6-O-sulfatase activity
  IC50: ~20 mM
[2]
  inhibition of N-sulfamidase by sulfate or phosphate: largely uninhibited; also recorded: not apparently inhibited

## phosphate
[2]
  inhibition of N-sulfamidase by sulfate or phosphate: largely uninhibited; also recorded: not apparently inhibited
